Measured values: patent EP4321162A1 (priority 2022, dated 2024)

What was measured:
[1] = system: Calu-3 2B4 cells; details: uninfected Calu-3 2B4 cells, 1-50 µM tested, 48 h
[2] = system: SARS-CoV-2; design: species or system K18-hACE2 mice; details: mouse, in vivo

| Compound | cytotoxicity of the administered concentrations (cell viability, MTT) [1] | protection levels (survival) [2] |
| --- | --- | --- |
| CC(C)(C)c1cc(C(C)(C)C)c(NC(=O)c2c[nH]c3ccccc3c2=O)cc1O [VX770, N-(2,4-ditert-butyl-5-hydroxyphenyl)-4-oxo-1H-quinoline-3-carboxamide] | non-toxic | 40% |
| Cc1ccc(NC(=O)C2(c3ccc4c(c3)OC(F)(F)O4)CC2)nc1-c1cccc(C(=O)O)c1 [VX809, 3-[6-[[1-(2,2-difluoro-1,3-benzodioxol-5-yl)cyclopropanecarbonyl]amino]-3-methylpyridin-2-yl]benzoic acid] | non-toxic | 20% |
